From ChEMBL document CHEMBL4420072, “Method for screening anti-cancer compounds inhibiting function of TM4SF5 and anti-cancer composition containing chalcone compounds” (2013)
In brackets after ≈: the same amount, converted by molar mass. Activity calls are given as the source filed them. The rule behind the calls is not given here.

Assays:
HCT-15 = assay: Cytotoxicity against human HCT15 cells assessed as reduction in cell viability by SRB assay; format: functional; conditions: read-out: ED50 (the source's name)
A549 = assay: Cytotoxicity against human A549 cells assessed as reduction in cell viability by SRB assay; format: functional; conditions: read-out: ED50 (the source's name)
[1] = biological target: T1, Transmembrane 4 L6 family member 5 (Homo sapiens) (UniProt O14894); assay: Activation of TM4SF5 in human SNU449Tp cells in monolayer arrangement assessed as stimulation of cell growth at 20 uM incubated for 24 hrs by optical microscopy; format: cell-based
T1 sequence (whole entry): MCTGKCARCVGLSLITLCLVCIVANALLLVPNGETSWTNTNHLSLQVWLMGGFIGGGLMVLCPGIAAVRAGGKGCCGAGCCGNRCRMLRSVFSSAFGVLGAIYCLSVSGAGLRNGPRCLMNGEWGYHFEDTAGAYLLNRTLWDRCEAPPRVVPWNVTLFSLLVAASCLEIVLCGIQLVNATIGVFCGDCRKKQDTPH

[2] = biological target: T1, Transmembrane 4 L6 family member 5 (Homo sapiens); assay: Activation of TM4SF5 in human SNU449Tp cells in monolayer arrangement assessed as effect on cell morphology at 20 uM incubated for 24 hrs by optical microscopy; format: cell-based
[3] = biological target: T1, Transmembrane 4 L6 family member 5 (Homo sapiens); assay: Activation of TM4SF5 in human SNU449Tp cells in multilayer arrangement assessed as stimulation of cell growth at 20 uM incubated for 24 hrs by optical microscopy; format: cell-based
[4] = biological target: T1, Transmembrane 4 L6 family member 5 (Homo sapiens); assay: Inhibition of TM4SF5 in human SNU449Tp cells assessed as effect on cell morphology at 20 uM incubated for 24 hrs by optical microscopy; format: cell-based
PC-3 = assay: Cytotoxicity against human PC3 cells assessed as reduction in cell viability by SRB assay; format: functional; conditions: read-out: ED50 (the source's name)
SNU-398 = assay: Growth inhibition of TM4SF5 deficient human SNU398 cells assessed as reduction in cell number at 1 to 20 ug/ml incubated up to 3 days; format: cell-based; conditions: snu-398, 72 h
[5] = biological target: T1, Transmembrane 4 L6 family member 5 (Homo sapiens); assay: Inhibition of TM4SF5 in human SNU449Tp cells assessed as restoration of reduced RhoA activity; format: cell-based
[6] = biological target: T1, Transmembrane 4 L6 family member 5 (Homo sapiens); assay: Inhibition of TM4SF5 in human SNU368 cells assessed as reduction in cell number at 1 to 20 ug/ml incubated up to 3 days; format: cell-based
[7] = biological target: T1, Transmembrane 4 L6 family member 5 (Homo sapiens); assay: Inhibition of TM4SF5 in human SNU449Tp cells assessed as restoration of cell-cell contact at 20 uM by E-cadherin and beta-catenin detection based immunofluorescent staining
[8] = biological target: T1, Transmembrane 4 L6 family member 5 (Homo sapiens); assay: Inhibition of TM4SF5 in human SNU449Tp cells assessed as reduction in pY77 FAK expression by Western blotting analysis; format: cell-based
[9] = biological target: T1, Transmembrane 4 L6 family member 5 (Homo sapiens); assay: Inhibition of TM4SF5 in human SNU449Tp cells assessed as reduction in cytosolic p27Kip1 expression by immunofluorescent staining; format: cell-based
[10] = biological target: T1, Transmembrane 4 L6 family member 5 (Homo sapiens); assay: Inhibition of TM4SF5 in human SNU449Tp cells assessed as increase in sensitivity of N-linked glycosylated region of TM4SF5 to PNGase F; format: cell-based
[11] = biological target: T1, Transmembrane 4 L6 family member 5 (Homo sapiens); assay: Inhibition of TM4SF5 in human SNU449Tp cells assessed as reduction in p27Kip1 expression by Western blotting analysis; format: cell-based
[12] = biological target: T1, Transmembrane 4 L6 family member 5 (Homo sapiens); assay: Inhibition of TM4SF5 in human SNU449Tp cells assessed as induction of return of elongated cell shape to polygonal shape by DAPI staining based assay
[13] = biological target: T1, Transmembrane 4 L6 family member 5 (Homo sapiens); assay: Inhibition of TM4SF5 in human HuH7 cells assessed as reduction in cell number at 1 to 20 ug/ml incubated up to 3 days; format: cell-based
[14] = biological target: T1, Transmembrane 4 L6 family member 5 (Homo sapiens); assay: Inhibition of TM4SF5 in human SNU449Tp cells assessed as reduction in cell invasion into collagen gel matrix at 20 uM incubated for 18 hrs; format: cell-based
[15] = biological target: T1, Transmembrane 4 L6 family member 5 (Homo sapiens); assay: Inhibition of TM4SF5 in human SNU449Tp cells assessed as reduction in MMP2 activity gel at 20 uM incubated for 24 hrs followed by medium exchange with serum-free medium and further incubated for 18 hrs by zymography; format: cell-based
[16] = biological target: T1, Transmembrane 4 L6 family member 5 (Homo sapiens); assay: Inhibition of TM4SF5 in human SNU449Tp cells assessed as reduction in cell invasion into Matrigel gel matrix at 20 uM incubated for 24 hrs; format: cell-based
[17] = biological target: T1, Transmembrane 4 L6 family member 5 (Homo sapiens); assay: Inhibition of TM4SF5 in human SNU449Tp cells assessed as reduction in cell migration at 20 uM incubated for 18 hrs by Transwell chamber based assay
[18] = biological target: T1, Transmembrane 4 L6 family member 5 (Homo sapiens); assay: Inhibition of TM4SF5 in human SNU449Tp cells assessed as reduction in pS10 p27Kip1 expression by Western blotting analysis; format: cell-based
[19] = biological target: T1, Transmembrane 4 L6 family member 5 (Homo sapiens); assay: Inhibition of TM4SF5 in human SNU449Tp cells assessed as reduction in MMP9 activity gel at 20 uM incubated for 24 hrs followed by medium exchange with serum-free medium and further incubated for 18 hrs by zymography; format: cell-based
[20] = biological target: T1, Transmembrane 4 L6 family member 5 (Homo sapiens); assay: Inhibition of TM4SF5 in human SNU449Tp cells assessed as inhibition of S-phase progression at 20 uM followed by BrdU addition and incubated for 24 hrs by immunofluorescent staining; format: cell-based
[21] = Growth inhibition of TM4SF5 deficient human SNU449Cp cells assessed as reduction in cell number at 5 to 40 uM incubated up to 2 days; conditions: 48 h
[22] = biological target: T1, Transmembrane 4 L6 family member 5 (Homo sapiens); assay: Inhibition of TM4SF5 in human HepG2 cells assessed as reduction in cell number at 1 to 20 ug/ml incubated up to 3 days; format: cell-based
[23] = biological target: T1, Transmembrane 4 L6 family member 5 (Homo sapiens); assay: Inhibition of TM4SF5 in human SNU449Tp cells assessed as reduction in alpha-SMA expression by Western blotting analysis; format: cell-based

Compound: Cc1ccc(S(=O)(=O)Oc2ccc(C(=O)/C=C/c3ccc(O)cc3O)cc2)cc1
- EC50 (HCT-15): 8 µg/mL (≈ 19.5 µM)
- EC50 (A549): 10 µg/mL (≈ 24.4 µM)

Compound: O=C(/C=C/c1ccc(O)cc1)c1ccc(O)cc1
- Activity [1]: Active
- Activity [2]: Active
- Activity [3]: inactive
- cell morphology effect (active/not active) [4]: inactive

Compound: O=C(/C=C/c1ccc(O)c(O)c1)c1ccc(OS(=O)(=O)c2cccc(F)c2)cc1
- EC50 (PC-3): 8 µg/mL (≈ 19.3 µM)
- EC50 (HCT-15): 7 µg/mL (≈ 16.9 µM)

Compound: Cc1ccc(S(=O)(=O)Nc2ccc(C(=O)/C=C/c3ccc(O)cc3)cc2)cc1
- growth inhibition (GI) (SNU-398): Non-Toxic
- inhibition [5]: Active
- inhibition [6]: Active
- inhibition [7]: Active
- inhibition [8]: Active
- inhibition [9]: Active
- inhibition [10]: Active
- inhibition [11]: Active
- inhibition [12]: Active
- inhibition [13]: Active
- inhibition [14]: Active
- inhibition [15]: Active
- inhibition [16]: Active
- inhibition [17]: Active
- inhibition [18]: Active
- cell morphology effect (active/not active) [4]: Active
- inhibition [19]: Active
- inhibition [20]: Active
- growth inhibition (GI) [21]: Non-Toxic
- inhibition [22]: Active
- inhibition [23]: Active

Compound: COc1ccc(C(=O)/C=C/c2ccc(O)cc2)cc1
- Activity [1]: Active
- Activity [2]: Active
- Activity [3]: inactive
- cell morphology effect (active/not active) [4]: inactive

Compound: Nc1ccc(C(=O)/C=C/c2ccc(O)cc2)cc1
- Activity [1]: Active
- Activity [2]: Active
- Activity [3]: inactive
- cell morphology effect (active/not active) [4]: inactive
